# Experimental data published in PubChem BioAssay (NCI).
#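 Assay format: 96-well plates, 48-hour exposure. The concentration for full growth arrest is given as TGI.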 Where a SMILES comes first, the peptide text is derived from it. [ ]: non-standard residue; d: D form. The star is where a group is joined. NMeAc5c = CNC1(C(=O)O)CCCC1; Boc = CC(C)(C)OC(=O)*; OBn = c1ccc(CO*)cc1
# Tests used:
# Test in all cases: NCI anticancer screen, dose series, 48 h
# [1] = tested on: CCRF-CEM leukemia
# [2] = tested on: COLO 205 colon
# [3] = tested on: HCT-116 colon
# [4] = tested on: HOP-62 NSCLC
# [5] = tested on: HOP-92 NSCLC
# [6] = tested on: HT29 colon
# [7] = tested on: MDA-MB-231 breast
# [8] = tested on: NCI-H226 lung
# [9] = tested on: NCI-H23 lung
# [10] = tested on: UO-31 renal
smiles,measurement,setting,value
COc1ccc(-c2cc(O)c3nc4ccccc4n3c2)cc1,TGI,[1],> 100 µM
same,TGI,[2],> 100 µM
same,TGI,[3],> 100 µM
same,TGI,[4],> 100 µM
same,TGI,[5],> 100 µM
same,TGI,[6],> 100 µM
same,TGI,[7],> 100 µM
same,TGI,[8],> 100 µM
same,TGI,[9],> 100 µM
same,TGI,[10],> 100 µM
C=CCN1C[C@H](C)N([C@H](c2ccc(C(=O)NC(CC)CC)cc2)c2cccc(OC)c2)C[C@H]1C,TGI,[1],> 100 µM
same,TGI,[2],32.5 µM
same,TGI,[3],> 100 µM
same,TGI,[4],> 100 µM
same,TGI,[5],> 100 µM
same,TGI,[6],61.1 µM
same,TGI,[7],75.6 µM
same,TGI,[8],> 100 µM
same,TGI,[9],> 100 µM
same,TGI,[10],52.7 µM
CC1(C)OC(=O)N(c2ccccc2)C12C=Cc1cc([N+](=O)[O-])cc([N+](=O)[O-])c1O2 (stereo not given),TGI,[1],> 100 µM
same,TGI,[2],> 100 µM
same,TGI,[3],> 100 µM
same,TGI,[4],> 100 µM
same,TGI,[5],> 100 µM
same,TGI,[6],> 100 µM
same,TGI,[7],> 100 µM
same,TGI,[8],> 100 µM
same,TGI,[9],> 100 µM
same,TGI,[10],> 100 µM
C#CCNC(CS)C(=O)O (stereo not given),TGI,[1],> 100 µM
same,TGI,[2],> 100 µM
same,TGI,[3],> 100 µM
same,TGI,[4],> 100 µM
same,TGI,[5],> 100 µM
same,TGI,[6],> 100 µM
same,TGI,[7],> 100 µM
same,TGI,[8],> 100 µM
same,TGI,[9],> 100 µM
same,TGI,[10],> 100 µM
O=C1CSC(c2ccc(Cl)cc2)N1c1ccc(Oc2ccc(Cl)cc2)c(Cl)c1 (stereo not given),TGI,[1],30.6 µM
same,TGI,[2],34.3 µM
same,TGI,[3],29.8 µM
same,TGI,[4],41.9 µM
same,TGI,[5],30.3 µM
same,TGI,[6],36.3 µM
same,TGI,[7],30.7 µM
same,TGI,[8],36.5 µM
same,TGI,[9],31.4 µM
same,TGI,[10],21 µM
CCCCCCc1cc2cc(-c3csc(CC#N)n3)c(=O)oc2cc1O,TGI,[1],> 100 µM
same,TGI,[2],> 100 µM
same,TGI,[3],> 100 µM
same,TGI,[4],> 100 µM
same,TGI,[5],69 µM
same,TGI,[6],> 100 µM
same,TGI,[7],55.2 µM
same,TGI,[8],> 71.1 µM
same,TGI,[9],> 100 µM
same,TGI,[10],> 78.6 µM
CN(C(=O)C(Cc1ccccc1)NC(=O)OC(C)(C)C)C1(C(=O)NC(Cc2ccccc2)C(=O)OCc2ccccc2)CCCC1 (stereo not drawn) (Boc-Phe-[NMeAc5c]-Phe-OBn; configuration not given here),TGI,[1],> 100 µM
same,TGI,[2],52.3 µM
same,TGI,[3],> 100 µM
same,TGI,[4],> 100 µM
same,TGI,[5],> 100 µM
same,TGI,[6],56.7 µM
same,TGI,[7],87 µM
same,TGI,[8],> 100 µM
same,TGI,[9],> 100 µM
same,TGI,[10],82.6 µM
CCCN(C(=O)c1ccccc1)C(C#N)c1ccc(C(C#N)N(CCC)C(=O)c2ccccc2)cc1 (stereo not given),TGI,[1],> 100 µM
same,TGI,[2],> 100 µM
same,TGI,[3],> 100 µM
same,TGI,[4],99.3 µM
same,TGI,[5],64.4 µM
same,TGI,[6],> 100 µM
same,TGI,[7],> 100 µM
same,TGI,[8],65.3 µM
same,TGI,[9],> 100 µM
same,TGI,[10],> 100 µM
Nc1nc(Cl)cc(NCC2(CO)CC(=O)C2)n1,TGI,[1],> 100 µM
same,TGI,[2],> 100 µM
same,TGI,[3],> 100 µM
same,TGI,[4],> 100 µM
same,TGI,[5],> 100 µM
same,TGI,[6],> 100 µM
same,TGI,[7],> 100 µM
same,TGI,[8],> 100 µM
same,TGI,[9],> 100 µM
same,TGI,[10],> 100 µM
C=CC1(C)CCC2C(=CCC3C2(C)CC(O)C(O)C3(C)COC2OC(C(=O)O)C(O)C(O)C2O)C1 (stereo not given) (tested in a mixture with another compound),TGI,[1],> 100 µM
same,TGI,[2],> 100 µM
same,TGI,[3],> 100 µM
same,TGI,[4],> 100 µM
same,TGI,[5],> 100 µM
same,TGI,[6],> 100 µM
same,TGI,[7],> 100 µM
same,TGI,[8],> 100 µM
same,TGI,[9],> 100 µM
same,TGI,[10],> 100 µM
C=C1C(=O)O[C@@H]2C(=O)[C@@H](C)CCC/C(C)=C/CC[C@@]3(C)O[C@@H]3C[C@@H]12,TGI,[1],30.2 µM
same,TGI,[2],47.9 µM
same,TGI,[3],96.1 µM
same,TGI,[4],> 100 µM
same,TGI,[5],31.2 µM
same,TGI,[6],31.1 µM
same,TGI,[7],> 100 µM
same,TGI,[8],> 100 µM
same,TGI,[9],> 100 µM
same,TGI,[10],> 100 µM
O=C1/C(=C/c2ccccc2)N=C2Sc3c(nc[nH]c3=O)N12,TGI,[1],> 100 µM
same,TGI,[2],> 100 µM
same,TGI,[3],> 100 µM
same,TGI,[4],> 100 µM
same,TGI,[5],> 100 µM
same,TGI,[6],> 100 µM
same,TGI,[7],> 100 µM
same,TGI,[8],> 100 µM
same,TGI,[9],> 100 µM
same,TGI,[10],> 100 µM
NC(=O)NCCCC(NC(=O)OCCCCn1ccc(=O)[nH]c1=O)C(=O)O (stereo not given),TGI,[1],> 100 µM
same,TGI,[2],> 100 µM
same,TGI,[3],> 100 µM
same,TGI,[4],> 100 µM
same,TGI,[5],> 100 µM
same,TGI,[6],> 100 µM
same,TGI,[7],> 100 µM
same,TGI,[8],> 100 µM
same,TGI,[9],> 100 µM
same,TGI,[10],> 100 µM
